Test results from US20230292780A1, “LISTERIA INHIBITION BY MANGANESE DEPLETION” (Chr. Hansen A/S, priority 2020, published 2023).
Like-named read-outs stand apart in the source and are kept apart here.

Columns and labels:
[1] = test system: S. thermophilus single strain isolated from Fresco 1000NG-10; conditions: second Mn-free CDM, 0 to 0.6 ppm manganese, 30° C.
Procedure: (§1) CDM for growth of Lactococcus lactis and Listeria innocua was prepared as described in Example 1. As to Streptococcus thermophilus, a second Mn-free CDM supporting it growth was prepared essentially as described by Otto et al. (“The relation between growth rate and electrochemical proton gradient of Streptococcus cremoris.” FEMS Microbiology Letters 16.1 (1983): 69-74) with the following exceptions: All metals were used in the same final concentrations as listed in Table 4, and all amino acids were added to a final concentration of 0.08 g/L except for cysteine, which consisted of a final concentration of 0.5 g/L. Wolfe's vitamin solution was used in which DL-Ca-pantothenate was increased to have a final concentration of 400 mg/L, and urea and NaHCO3 were added to a final concentration of 0.12 and 0.42 g, respectively.
(§2) The following strains were tested: • 1. L. lactis single strain isolated from Fresco 1000NG-10 (Chr. Hansen A/S, Denmark) • 2. S. thermophilus single strain isolated from Fresco 1000NG-10 (Chr. Hansen A/S, Denmark) • 3. L. innocua BL 86/26
(§3) All strains were pre-grown to stationary phase cultures from −80° C. glycerol stocks in M17 broth with 1% (w/v) glucose, as standing cultures at 30° C. 1 mL of each culture was then washed twice with and resuspended in manganese-deficient CDM to remove residual manganese. 1 μL of each washed culture was then used to inoculate, in triplicate, a well of a 96-wells plate containing 200 μL CDM supplemented with 1% (w/v) glucose diluted from a 50% (w/v) stock solution dissolved in Milli-Q water, and in which manganese was left out, or added to a final concentration of 0.00006, 0.0006, 0.006, 0.06 or 0.6 mg L-1 manganese. Growth was followed by monitoring the absorbance at 600 nm at 30° C. in a Synergi H1 reader (BioTek, Winooski, VT, USA).

[2] = test system: L. lactis single strain isolated from Fresco 1000NG-10; conditions: CDM, 0 to 0.6 ppm manganese, 30° C.
Procedure: as §1, §2, §3

L. innocua BL 86/26 = conditions: CDM, 30° C.
Procedure: as §1, §2, §3

[3] = test system: L. lactis subsp. cremoris MG1363; conditions: same CDM
Procedure: (§4) All the components were dissolved in 700 mL Milli-Q water to minimize traces of manganese, and the pH was set to 6.8 with KOH, after which the volume was adjusted to 1 L and filter-sterilized.
(§5) The following strains were tested: • 1. L. monocytogenes 1: DSM 15675 (obtainable from DSMZ) • 2. L. monocytogenes 2: mhl210 (obtainable from the Copenhagen University from Department of Veterinary and Animal Sciences, Section for Food Safety and Zoonoses) • 3. L. monocytogenes 3: ATCC 13932 (obtainable from ATCC) • 4. L. innocua BL 86/26 • 5. L. lactis subsp. cremoris MG1363 (MoBiTec GmbH, Germany)
(§6) L. innocua BL 86/26 and L. lactis MG1363 were pre-grown from -80° C. glycerol stocks in M17 broth with 1% (w/v) glucose. The three L. monocytogenes were pre-grown from −80° C. glycerol stocks in BHI. All cultures were incubated overnight as standing cultures at 30° C., resulting in stationary phase cultures. The next day, 1 mL of each culture was washed twice with and resuspended in manganese-deficient CDM to remove residual manganese. 1 μL of each washed culture was then used to inoculate, in triplicate, a well of a 96-wells plate containing 200 μL CDM supplemented with 1% glucose diluted from a 50% (w/v) stock solution dissolved in demineralized water, in which manganese was left out, or added to a final concentration of 0.00006, 0.0006, 0.006, 0.06 or 0.6 mg L^−1 manganese. Growth was followed by monitoring the absorbance at 600 nm at 30° C. in a Synergi H1 reader (BioTek, Winooski, VT, USA). This experiment was repeated twice on separate days to check reproducibility.

[4] = test system: four Listeria spp. strains (L. monocytogenes DSM 15675, mhl210, ATCC 13932; L. innocua BL 86/26); conditions: for growth (absorbance at 600 nm): 30° C.
Procedure: as §4, §5, §6

Structure (SMILES): [Mn+2] [manganese]
- growth on depletion of manganese [1]: minimally inhibited
- growth on depletion of manganese [2]: minimally inhibited
- manganese required for growth to occur (L. innocua BL 86/26): more than 0.0006 ppm
- growth on depletion of manganese [3]: hardly inhibited
- growth (absorbance at 600 nm) ([4]; 0.0006 ppm manganese added to CDM): severely hampered
- growth (absorbance at 600 nm) ([4]; 0.006 ppm manganese added to CDM): some growth defects
- growth (absorbance at 600 nm) ([4]; 0.06 ppm manganese added to CDM): no growth defect
- growth (absorbance at 600 nm) ([4]; 0.6 ppm manganese added to CDM): no growth defect
- manganese concentration below which inhibition of Listeria can be seen ([4]; CDM): below 0.006 ppm
- manganese concentration that restored the growth of Listeria ([4]; CDM): above 0.006 ppm
- time the inhibitory effect due to low manganese levels is maintained ([4]; low manganese levels in CDM): at least 20 hours
